Measurements from ChEMBL document CHEMBL5465560, “Selectivity Literature for EUbOPEN Chemogenomic Library” (2024).

Tests used:
[1] = target: Bone morphogenetic protein receptor type-1A (Homo sapiens, UniProt P36894); test: Selectivity interaction (KinomeScan (DiscoverX)) EUB0001049a BMPR1A; conditions: at 1 µM
[2] = target: NT-3 growth factor receptor (Homo sapiens, UniProt Q16288); test: Selectivity interaction (KinomeScan (DiscoverX)) EUB0000229b NTRK3; conditions: at 10 µM
[3] = target: T1, Serine/threonine-protein kinase Nek2 (Homo sapiens) (UniProt P51955); test: Selectivity interaction (KinomeScan (DiscoverX)) EUB0001079a NEK2; conditions: at 1 µM
T1 sequence (whole entry): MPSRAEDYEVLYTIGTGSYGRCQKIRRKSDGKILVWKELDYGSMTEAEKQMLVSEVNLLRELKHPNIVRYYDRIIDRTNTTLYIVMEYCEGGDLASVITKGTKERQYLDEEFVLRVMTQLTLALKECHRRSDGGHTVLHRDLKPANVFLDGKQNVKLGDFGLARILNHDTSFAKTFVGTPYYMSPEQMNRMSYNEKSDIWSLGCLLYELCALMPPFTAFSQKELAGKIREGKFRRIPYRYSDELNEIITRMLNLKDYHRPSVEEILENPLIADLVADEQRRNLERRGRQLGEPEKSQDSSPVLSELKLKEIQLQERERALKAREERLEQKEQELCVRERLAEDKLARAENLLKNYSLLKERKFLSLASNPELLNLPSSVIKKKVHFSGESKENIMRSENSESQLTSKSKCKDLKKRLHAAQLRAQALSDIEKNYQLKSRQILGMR

[4] = target: T2, Cytoplasmic tyrosine-protein kinase BMX (Homo sapiens) (UniProt P51813); test: Selectivity interaction (Kinase panel (Invitrogen)) EUB0000639a BMX; conditions: at 200 nM
T2 sequence (whole entry): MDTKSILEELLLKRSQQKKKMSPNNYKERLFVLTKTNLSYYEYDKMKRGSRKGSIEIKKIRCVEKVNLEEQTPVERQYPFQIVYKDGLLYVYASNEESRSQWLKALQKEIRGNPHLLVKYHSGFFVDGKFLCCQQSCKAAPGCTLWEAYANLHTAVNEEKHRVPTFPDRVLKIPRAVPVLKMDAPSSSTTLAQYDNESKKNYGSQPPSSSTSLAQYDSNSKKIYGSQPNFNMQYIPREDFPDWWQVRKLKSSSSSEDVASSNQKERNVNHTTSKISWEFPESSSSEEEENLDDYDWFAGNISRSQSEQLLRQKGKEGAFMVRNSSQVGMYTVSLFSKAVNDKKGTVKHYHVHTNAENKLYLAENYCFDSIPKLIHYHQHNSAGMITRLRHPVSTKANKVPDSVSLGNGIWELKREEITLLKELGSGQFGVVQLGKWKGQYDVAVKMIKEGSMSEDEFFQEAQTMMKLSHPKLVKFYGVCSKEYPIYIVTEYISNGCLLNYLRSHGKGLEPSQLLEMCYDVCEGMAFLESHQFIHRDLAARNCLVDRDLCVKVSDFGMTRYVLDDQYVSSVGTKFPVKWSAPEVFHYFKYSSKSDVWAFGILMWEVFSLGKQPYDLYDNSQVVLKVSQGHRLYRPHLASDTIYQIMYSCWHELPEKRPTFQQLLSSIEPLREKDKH

[5] = target: Calcium/calmodulin-dependent protein kinase type 1 (Homo sapiens) (UniProt Q14012); test: Selectivity interaction (ActivX KiNativ screen (kinase selectivity in THP-1 cell lysates)) EUB0000639a CAMK1; type: subcellular; conditions: lysate
Chain of Calcium/calmodulin-dependent protein kinase type 1 (Homo sapiens) (Q14012 whole entry, looked up): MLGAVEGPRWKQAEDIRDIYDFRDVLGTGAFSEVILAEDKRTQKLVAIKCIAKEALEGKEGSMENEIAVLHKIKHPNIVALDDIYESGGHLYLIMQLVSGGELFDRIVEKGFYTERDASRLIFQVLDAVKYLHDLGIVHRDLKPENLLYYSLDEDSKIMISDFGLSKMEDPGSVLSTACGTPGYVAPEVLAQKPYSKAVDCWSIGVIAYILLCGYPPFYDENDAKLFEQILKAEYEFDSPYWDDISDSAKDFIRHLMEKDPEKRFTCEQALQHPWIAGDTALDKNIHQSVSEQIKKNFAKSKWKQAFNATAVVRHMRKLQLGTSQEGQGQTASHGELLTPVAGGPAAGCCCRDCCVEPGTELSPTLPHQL

[6] = target: T3, Serine/threonine-protein kinase 17A (Homo sapiens) (UniProt Q9UEE5); test: Selectivity interaction (Kinase panel (DSF assay)) EUB0001489b STK17A
T3 sequence (whole entry): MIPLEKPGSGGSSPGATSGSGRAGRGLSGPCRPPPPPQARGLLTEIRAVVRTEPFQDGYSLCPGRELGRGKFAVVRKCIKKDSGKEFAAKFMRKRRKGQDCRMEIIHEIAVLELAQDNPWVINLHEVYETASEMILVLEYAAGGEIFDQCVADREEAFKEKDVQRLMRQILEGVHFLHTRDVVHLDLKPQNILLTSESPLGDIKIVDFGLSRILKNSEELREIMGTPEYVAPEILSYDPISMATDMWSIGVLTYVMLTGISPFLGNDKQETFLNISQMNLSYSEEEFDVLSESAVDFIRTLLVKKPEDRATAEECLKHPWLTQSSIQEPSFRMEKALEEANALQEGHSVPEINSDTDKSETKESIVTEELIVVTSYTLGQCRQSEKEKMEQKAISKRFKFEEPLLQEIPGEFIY

[7] = target: Protein arginine N-methyltransferase 8 (Homo sapiens, UniProt Q9NR22); test: Selectivity interaction (Scintillation proximity assays) EUB0000255b PRMT8
Chain of Protein arginine N-methyltransferase 8 (Q9NR22 whole entry): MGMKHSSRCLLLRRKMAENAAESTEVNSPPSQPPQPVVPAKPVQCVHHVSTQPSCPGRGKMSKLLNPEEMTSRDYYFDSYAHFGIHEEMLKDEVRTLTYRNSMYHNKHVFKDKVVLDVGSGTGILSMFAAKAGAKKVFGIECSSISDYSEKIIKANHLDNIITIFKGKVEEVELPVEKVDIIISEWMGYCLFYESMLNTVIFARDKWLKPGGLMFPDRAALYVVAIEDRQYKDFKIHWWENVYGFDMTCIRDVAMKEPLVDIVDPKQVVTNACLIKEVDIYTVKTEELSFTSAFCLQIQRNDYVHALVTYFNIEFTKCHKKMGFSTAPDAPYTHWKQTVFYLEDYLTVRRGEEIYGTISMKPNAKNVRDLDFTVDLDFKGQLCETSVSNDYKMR

[8] = target: Calcium/calmodulin-dependent protein kinase type 1 (Homo sapiens) (UniProt Q14012); test: Selectivity interaction (KinomeScan (DiscoverX)) EUB0000045b CAMK1
[9] = target: Dual specificity tyrosine-phosphorylation-regulated kinase 1B (Homo sapiens, UniProt Q9Y463); test: Selectivity interaction (KinomeScan (DiscoverX)) EUB0000045b DYRK1B
Chain of Dual specificity tyrosine-phosphorylation-regulated kinase 1B (Q9Y463 whole entry, looked up): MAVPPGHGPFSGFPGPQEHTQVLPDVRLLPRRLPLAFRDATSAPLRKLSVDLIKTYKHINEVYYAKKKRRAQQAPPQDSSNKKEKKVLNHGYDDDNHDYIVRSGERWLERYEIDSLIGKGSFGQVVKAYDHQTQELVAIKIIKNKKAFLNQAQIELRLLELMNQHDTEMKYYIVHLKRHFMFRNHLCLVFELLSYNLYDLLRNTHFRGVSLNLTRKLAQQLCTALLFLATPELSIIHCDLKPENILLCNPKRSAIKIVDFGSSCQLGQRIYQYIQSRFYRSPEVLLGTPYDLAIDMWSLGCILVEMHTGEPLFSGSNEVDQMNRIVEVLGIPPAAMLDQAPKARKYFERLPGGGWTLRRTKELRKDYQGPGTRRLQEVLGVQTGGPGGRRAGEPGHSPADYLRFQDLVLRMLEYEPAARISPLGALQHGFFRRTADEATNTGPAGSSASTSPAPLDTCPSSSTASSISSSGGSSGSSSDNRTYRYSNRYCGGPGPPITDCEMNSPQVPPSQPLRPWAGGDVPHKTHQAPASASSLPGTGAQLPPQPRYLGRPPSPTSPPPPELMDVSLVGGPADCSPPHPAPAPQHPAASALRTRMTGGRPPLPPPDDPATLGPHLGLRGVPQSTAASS

[10] = target: Tyrosine-protein kinase ABL2 (Homo sapiens, UniProt P42684); test: Selectivity interaction (KinomeScan (DiscoverX)) EUB0000618a ABL2; conditions: at 10 µM
Chain of Tyrosine-protein kinase ABL2 (P42684 whole entry): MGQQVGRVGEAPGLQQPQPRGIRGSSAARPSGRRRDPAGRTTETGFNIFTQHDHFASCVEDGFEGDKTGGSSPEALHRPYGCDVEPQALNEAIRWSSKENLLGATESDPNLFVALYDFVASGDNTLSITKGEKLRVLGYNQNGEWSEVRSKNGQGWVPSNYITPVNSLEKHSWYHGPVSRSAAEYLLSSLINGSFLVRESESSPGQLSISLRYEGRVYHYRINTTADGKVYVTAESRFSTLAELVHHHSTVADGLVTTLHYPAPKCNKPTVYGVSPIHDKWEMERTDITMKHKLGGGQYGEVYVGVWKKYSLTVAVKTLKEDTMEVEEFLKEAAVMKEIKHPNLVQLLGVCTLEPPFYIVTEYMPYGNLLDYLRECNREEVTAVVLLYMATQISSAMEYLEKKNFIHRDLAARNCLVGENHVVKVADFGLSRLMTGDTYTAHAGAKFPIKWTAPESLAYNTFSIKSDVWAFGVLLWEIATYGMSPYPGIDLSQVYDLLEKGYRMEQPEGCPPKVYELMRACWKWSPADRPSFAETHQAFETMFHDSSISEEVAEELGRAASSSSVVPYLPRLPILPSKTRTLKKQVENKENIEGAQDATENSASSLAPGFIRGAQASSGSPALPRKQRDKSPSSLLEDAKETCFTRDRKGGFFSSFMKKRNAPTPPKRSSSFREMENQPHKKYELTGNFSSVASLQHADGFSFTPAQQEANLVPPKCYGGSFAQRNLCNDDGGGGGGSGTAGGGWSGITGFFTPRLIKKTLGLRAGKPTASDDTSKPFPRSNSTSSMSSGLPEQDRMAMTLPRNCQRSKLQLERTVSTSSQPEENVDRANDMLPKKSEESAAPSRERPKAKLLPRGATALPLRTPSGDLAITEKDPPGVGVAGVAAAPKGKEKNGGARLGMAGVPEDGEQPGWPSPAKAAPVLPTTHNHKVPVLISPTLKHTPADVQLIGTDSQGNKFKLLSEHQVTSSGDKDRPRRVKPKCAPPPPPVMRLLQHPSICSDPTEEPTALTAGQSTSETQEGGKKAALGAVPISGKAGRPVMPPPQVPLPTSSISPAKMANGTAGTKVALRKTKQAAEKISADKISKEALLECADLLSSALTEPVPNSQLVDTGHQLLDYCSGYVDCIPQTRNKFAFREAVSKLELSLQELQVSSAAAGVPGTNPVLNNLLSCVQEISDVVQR

Ephrin type-A receptor 4 = Ephrin type-A receptor 4 (Homo sapiens, UniProt P54764); test: Selectivity interaction (KinomeScan (DiscoverX)) EUB0000618a EPHA4; conditions: at 10 µM
[11] = target: Tyrosine-protein kinase HCK (Homo sapiens) (UniProt P08631); test: Selectivity interaction (ActivX KiNativ screen (ex vivo kinase selectivity in human PBMCs)) EUB0001619a HCK; type: cell-based; conditions: PBMC, at 1 µM
SRSF protein kinase 1 = SRSF protein kinase 1 (Homo sapiens, UniProt Q96SB4); test: Selectivity interaction (KinomeScan (DiscoverX)) EUB0001619a SRPK1; conditions: at 1 µM
Chain of SRSF protein kinase 1 (Q96SB4 whole entry): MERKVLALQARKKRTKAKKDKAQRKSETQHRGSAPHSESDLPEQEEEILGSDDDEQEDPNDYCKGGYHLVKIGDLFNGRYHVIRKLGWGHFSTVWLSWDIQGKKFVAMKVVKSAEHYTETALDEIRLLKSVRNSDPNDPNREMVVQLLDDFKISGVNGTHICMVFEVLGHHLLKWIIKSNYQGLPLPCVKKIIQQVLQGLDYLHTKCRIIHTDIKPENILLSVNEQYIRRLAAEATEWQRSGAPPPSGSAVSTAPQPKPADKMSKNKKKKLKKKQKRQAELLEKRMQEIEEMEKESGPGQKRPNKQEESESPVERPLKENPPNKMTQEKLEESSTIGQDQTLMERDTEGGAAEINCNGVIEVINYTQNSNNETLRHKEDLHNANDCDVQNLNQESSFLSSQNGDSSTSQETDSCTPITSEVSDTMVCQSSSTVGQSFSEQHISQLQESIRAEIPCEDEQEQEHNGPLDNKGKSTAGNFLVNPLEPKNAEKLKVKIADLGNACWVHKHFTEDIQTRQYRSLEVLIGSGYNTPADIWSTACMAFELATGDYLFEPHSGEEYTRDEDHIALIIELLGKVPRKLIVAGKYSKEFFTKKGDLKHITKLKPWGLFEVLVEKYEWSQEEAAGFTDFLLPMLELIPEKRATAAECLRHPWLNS

[12] = target: Glutamate receptor ionotropic, NMDA 1 (Homo sapiens) (UniProt Q05586); test: Selectivity interaction (Panel of kinases, GPCRs, ion channels and transporters (enzymatic assay)) EUB0000266bCl GRIN1
[13] = target: Calcium/calmodulin-dependent protein kinase type 1 (Homo sapiens) (UniProt Q14012); test: Selectivity interaction (KinomeScan (DiscoverX)) EUB0000607a CAMK1; conditions: at 10 µM
Adenosine receptor A2a = Adenosine receptor A2a (Homo sapiens, UniProt P29274); test: Selectivity interaction (Panel of kinases, GPCRs, ion channels and transporters (enzymatic assay)) EUB0000223bCl ADORA2A
Chain of Adenosine receptor A2a (P29274 whole entry): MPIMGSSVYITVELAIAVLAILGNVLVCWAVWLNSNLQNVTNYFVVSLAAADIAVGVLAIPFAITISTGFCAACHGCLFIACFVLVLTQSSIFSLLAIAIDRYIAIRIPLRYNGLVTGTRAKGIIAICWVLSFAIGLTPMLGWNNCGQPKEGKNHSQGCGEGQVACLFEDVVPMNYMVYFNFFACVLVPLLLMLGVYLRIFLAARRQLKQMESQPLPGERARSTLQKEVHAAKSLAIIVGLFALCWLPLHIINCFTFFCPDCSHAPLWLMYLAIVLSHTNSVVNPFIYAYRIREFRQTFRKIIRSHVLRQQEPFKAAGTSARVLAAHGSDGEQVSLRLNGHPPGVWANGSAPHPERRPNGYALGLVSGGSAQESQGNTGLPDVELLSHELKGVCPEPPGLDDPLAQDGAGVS

Cannabinoid receptor 1 = Cannabinoid receptor 1 (Homo sapiens, UniProt P21554); test: Selectivity interaction (Panel of non-epigenetic targets (kinases, GPCRs, ion channels, and transporters, Eurofins) ) EUB0000271b CNR1; conditions: at 1 µM
Chain of Cannabinoid receptor 1 (P21554 whole entry): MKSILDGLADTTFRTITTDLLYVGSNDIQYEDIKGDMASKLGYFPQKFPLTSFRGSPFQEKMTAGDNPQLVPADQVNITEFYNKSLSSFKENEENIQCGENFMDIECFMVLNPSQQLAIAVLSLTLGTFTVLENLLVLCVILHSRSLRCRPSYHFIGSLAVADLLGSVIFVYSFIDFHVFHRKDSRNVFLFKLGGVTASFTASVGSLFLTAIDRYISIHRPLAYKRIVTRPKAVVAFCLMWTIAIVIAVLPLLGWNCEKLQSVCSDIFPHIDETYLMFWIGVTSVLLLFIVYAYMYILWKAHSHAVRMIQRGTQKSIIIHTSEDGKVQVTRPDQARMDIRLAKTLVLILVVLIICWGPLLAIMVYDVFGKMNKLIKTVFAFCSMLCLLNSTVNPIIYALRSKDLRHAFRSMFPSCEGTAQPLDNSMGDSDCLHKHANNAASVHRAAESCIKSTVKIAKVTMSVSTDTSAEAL

Chain of NT-3 growth factor receptor (Q16288 32-839 limits assumed): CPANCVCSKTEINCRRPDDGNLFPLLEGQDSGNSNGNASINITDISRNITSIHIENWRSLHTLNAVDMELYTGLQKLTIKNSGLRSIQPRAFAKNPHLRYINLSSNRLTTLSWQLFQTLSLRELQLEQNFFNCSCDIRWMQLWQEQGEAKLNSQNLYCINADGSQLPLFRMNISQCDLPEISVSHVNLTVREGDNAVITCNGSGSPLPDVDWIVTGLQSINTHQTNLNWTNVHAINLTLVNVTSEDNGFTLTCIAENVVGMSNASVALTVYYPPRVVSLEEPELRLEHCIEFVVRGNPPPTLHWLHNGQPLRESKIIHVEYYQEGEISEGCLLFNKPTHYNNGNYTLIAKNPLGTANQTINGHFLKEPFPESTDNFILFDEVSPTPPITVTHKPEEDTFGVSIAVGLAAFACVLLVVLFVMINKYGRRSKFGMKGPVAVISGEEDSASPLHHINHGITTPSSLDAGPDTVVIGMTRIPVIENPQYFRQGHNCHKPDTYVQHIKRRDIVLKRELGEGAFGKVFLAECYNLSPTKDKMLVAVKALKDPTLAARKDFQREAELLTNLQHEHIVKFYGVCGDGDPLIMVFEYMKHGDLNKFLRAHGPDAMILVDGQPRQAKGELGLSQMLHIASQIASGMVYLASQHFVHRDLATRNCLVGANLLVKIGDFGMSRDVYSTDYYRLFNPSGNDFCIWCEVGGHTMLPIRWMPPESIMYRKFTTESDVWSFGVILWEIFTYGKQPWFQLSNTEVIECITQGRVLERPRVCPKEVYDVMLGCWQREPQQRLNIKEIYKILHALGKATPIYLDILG

Q: For `COc1cc(Nc2nc(C)cc(-c3cnn4nc(OC)ccc34)n2)cc(C(F)(F)F)c1`, which % of control [1] is on record?
A: 100%

Q: With `COc1cc(N(C)c2ccnc3ccc(C(F)(F)F)cc23)cc(OC)c1OC` as the compound, how does the % binding [2] read?
A: 100%

Q: For `Nc1cnc(N2CCc3cc(S(=O)(=O)Nc4c(F)cc(Cl)cc4F)cc(N4CCCC4=O)c32)nc1` [TP-020n], which % of control [3] is on record?
A: 89%

Q: Which results are given for `CC[C@@H]1[C@H](F)C(=O)N[C@@H]1COc1nccc2cc(C(N)=O)c(OC)cc12` [ZIMLOVISERTIB]?
A: % of inhibition [4]: -1.42%; % of inhibition ([5]; at 0.01 µM): -2.6%; % of inhibition ([5]; at 0.04 µM): 9.8%; % of inhibition ([5]; at 0.2 µM): 1.9%; % of inhibition ([5]; at 1 µM): -7.1%; % of inhibition ([5]; at 5 µM): -4.3%

Q: How did the dTM [6] turn out when `CN1CCN(C(=O)c2ccc3cc2OCCOCCNc2ccn4ncc-3c4n2)CC1` was run?
A: 1.5 K

Q: How did the IC50 [7] turn out when `COCCN1CCC(c2cc(CN(C)C(=O)c3cccc(Oc4ccccc4)c3)ccn2)CC1` was run?
A: > 10 µM

Q: With `C=CC(=O)Nc1cc(-n2c(=O)ccc3cnc4ccc(-c5ccc(NS(C)(=O)=O)cc5)cc4c32)ccc1C` as the compound, how does the % of control ([8]; at 1 µM) read?
A: 100%

Q: And the % of control ([8]; at 10 µM)?
A: 88%

Q: And the % of control ([9]; at 1 µM)?
A: 100%

Q: And the % of control ([9]; at 10 µM)?
A: 81%

Q: `O[C@H]1CC[C@H](Nc2ncc3nc(Nc4c(F)cc(F)cc4F)n([C@H]4CCOC4)c3n2)CC1` was tested. Which % of control [10] did it give?
A: 100%

Q: What about the % of control (Ephrin type-A receptor 4) of the same compound?
A: 93%

Q: `N#Cc1cccc(-c2c[nH]c3ncnc(N4CCOCC4)c23)c1` was tested. Which % of inhibition [11] did it give?
A: 21%

Q: What about the % of control (SRSF protein kinase 1) of the same compound?
A: 25%

Q: `CCn1c(-c2nc3cc(C(=O)N4CCCC(N)C4)ccc3n2C)cc2ccccc21` (stereo not drawn) was tested. Which pXC50 [12] did it give?
A: < 4.3 M

Q: For `CNC(=O)Nc1ccc(-c2nc(N3CC4CCC(C3)O4)c3cnn(C4CCC5(CC4)OCCO5)c3n2)cc1`, which % of control [13] is on record?
A: 93%

Q: How did the pXC50 (Adenosine receptor A2a) turn out when `COc1cc(C(=O)N2CC[C@@H](O)[C@@H](N)C2)cc2nc(-c3cc4ccccc4n3CC3CC3)n(C)c12` was run?
A: < 4.5 M

Q: `Cc1cc(C)cc([C@@H]2c3cc(C)ccc3NC(=O)CN2C(=O)c2ccc(Br)s2)c1` was tested. Which % of inhibition (Cannabinoid receptor 1) did it give?
A: -20%
